Source: patent publication US20240415845A1, “Compositions of Iboga Alkaloids and Methods of Treatment” (priority 2022, published 2024)

Legend:
[1] = tested on: special operations veterans with combat and/or blast exposure; assay: Structural MRI (T1w, FreeSurfer): brain volume and cortical thickness; type: in vivo, human
Procedure: Structural imaging of the brain was also conducted on some of the subjects of Example 1. Gray matter constitutes about 40% of the brain and white matter constitutes about 60% of the brain. Gray matter contains most of the brain's neuronal cell nodes, it is fully developed once a person reaches their 20's and interprets sensor information from various parts of the body. White matter is made up of bundles which connect various gray matter areas, it develops throughout the 20's and peaks in middle age. Typical metrics analyzed in anatomical (T1-weighted, “T1w”) imaging include volume and/or shape of nuclei (e.g. caudate), volume and/or shape of ventricles of the brain, and cortical thickness (mm). These metrics can be used to study normal and abnormal neuroanatomy and are primarily used to quantify gray matter. A tool called FreeSurfer was applied to images for a T1w structural analysis (volume, cortical thickness) to adjust for bias, remove non-brain matter, segments by tissue, parcels the brain into standardized regions, and provides measurements of those regions. FreeSurfer measurements of whole brain volume, volume by tissue (gray, white, CSF), estimated intracranial volume (ICV), subcortical gray matter volume, cortical volume by region were done. […] In particular, analysis was done to determine if there was any loss in gray matter volume or cortical thickness, whether there was a loss in white matter volume or an increase in presence of white matter […]. Results are summarized in Table 3 and shown in FIGS. 17A-17B, and FIGS. 18A-18B.
The fMRI images were also inspected to determine the difference in volume in regional areas of the brain from baseline to one month after treatment. FIG. 18A is a bar graph showing the effect size of a change in volume in 47 brain regions indicated along the x-axis. […] The fMRI images were also inspected for whole brain thickness at baseline and one month after treatment. […] FIG. 18B is a bar graph showing the effect size of a cortical thickness change for the brain regions indicated along the x-axis, from baseline to one month after treatment. […] The right and left parahippocampal gyrus are involved in visuospatial processing, including scene perception, navigation, and emotional contextualization. The left orbitofrontal gyrus is involved in impulse control and reward valuation. The left insular cortex is associated with both the affective-perceptual and cognitive-evaluative forms of empathy, as well as awareness of hunger, pain and fatigue. The left entorhinal cortex is a widespread network hub for memory, navigation, and perception of time.

[2] = tested on: special operations veterans with combat and/or blast exposure; assay: Functional MRI: resting-state functional connectivity and lag projection analysis; type: in vivo, human
Procedure: Functional magnetic resonance imaging (fMRI) was performed on the subjects enrolled in the study described in Example 1. Neuroimaging is a branch of medical imaging that focuses on the brain. It utilizes techniques of physics, optics, and mathematics to quantify brain structure and function. […] During resting, subjects are asked to do nothing and the aim is to observe the brain at rest. When the subject is asked to perform a task, the aim is to observe how the brain works in response to the task. Other magnetic resonance based imaging techniques include: anatomical, which measures cortical thickness, area, gyrification, and volume: arterial spin labelling, which quantitatively measures tissue perfusion, cerebral blood flow, where perfusion refers to the delivery of oxygen and nutrients to tissue by means of blood flow: and, diffusion tensor imaging, which measures diffusion of water through white natter, such as neural fiber tracts. fMRI can provide a series of images that form a film, as opposed to a single image obtained in MRI.
The human brain is a series of well-organized and optimized series of efficient networks. […] The functional connectivity networks evaluated in a region of interest in the brain included those identified in Table 2-1 of Example 2.
fMRI data was also analyzed to inspect activity patterns as a function of time. […]

[3] = baseline to one month after treatment

Structure (SMILES): CCC1CC2CC3c4[nH]c5ccc(OC)cc5c4CCN(C2)C13 (stereo not drawn) [ibogaine, Ibogaine]
- regional volume change in cerebral white matter (left) and left ventral DC [1, 3]: Increases in volume
- regional volume change in posterior corpus callosum and left choroid plexus [1, 3]: Decreases in volume
- White matter hypointensities (corrected for cerebral white matter), change ([1]; baseline vs one month post treatment, 17 subjects, two-tailed p = 0.0789): Two-tailed: no significant differences
- Subcortical Gray Matter volume, change ([1]; baseline vs one month post treatment, 17 subjects, two-tailed p = 0.0949): Two-tailed: no significant differences
- Total Gray Matter volume, change ([1]; baseline vs one month post treatment, 17 subjects, two-tailed p = 0.4755): Two-tailed: no significant differences
- Cortical Gray Matter volume, change ([1]; baseline vs one month post treatment, 17 subjects, two-tailed p = 0.4847): Two-tailed: no significant differences
- damage to the brain by inspection of brain volume and thickness ([1]; one month after treatment): no apparent damage to the brain
- right hemisphere mean cortical thickness, change ([1]; one month after treatment vs baseline): no significant difference
- Left hemisphere mean cortical thickness, change ([1]; one month after treatment vs baseline, two-tailed p=0.7146): no significant difference
- cortical thickness change in left entorhinal cortex, left-lateral-orbitofrontal pole, parahippocampal gyrus (bilaterally), left insular cortex, right-pars triangularis ([1]; one-month after treatment): Increases in cortical thickness
- lag projection of BOLD fMRI in left orbitofrontal gyrus and inferior frontal gyrus ([2]; baseline vs about four days post treatment, paired T-test, fwec p<0.001): relative slowing
- functional connection pairs in the brain networks reorganized (resting state functional connectivity) ([2]; within a few days after treatment, persisted to one-month post treatment): 22
